Square brackets hold non-standard residues; d marks the D form. Peptide text beside a SMILES is read from it. Nle = CCCC[C@H](N)C(=O)O

Results on 4 molecules are retold here after patent US20200254065A1, “LONG-ACTING GLP-2 ANALOGS” (OPKO Biologics Ltd., priority 2019, published 2020).

The subject of one series is small intestine. In words: Intestine weight model in rats. The class given is in vivo, SD rats. The method in brief: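 Rat intestinal growth model: conjugates given s.c. at 0.5–8.0 mg/kg peptide dose, as one injection, on days 1 and 3, or every 6 days; small intestine weighed on day 3, 6, 7, 10, 12 or 14. Histology (H&E, duodenum/jejunum/ileum) gave crypt+villus length. Both reported as % increase over vehicle.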

Series [1] in a line: Solubility and stability in different buffer systems, concentrations, incubation and freeze-thaw. The class given is physicochemical. The conditions noted are these: Histidine and NaPi, pH 6.8 to 7.5; 1-10 mg/mL; up to 3 days at 37° C.; up to three freeze-thaw cycles.
Series [2] addresses T1, GLP-2 receptor (Homo sapiens, UniProt O95838).
T1 sequence (O95838 1-553): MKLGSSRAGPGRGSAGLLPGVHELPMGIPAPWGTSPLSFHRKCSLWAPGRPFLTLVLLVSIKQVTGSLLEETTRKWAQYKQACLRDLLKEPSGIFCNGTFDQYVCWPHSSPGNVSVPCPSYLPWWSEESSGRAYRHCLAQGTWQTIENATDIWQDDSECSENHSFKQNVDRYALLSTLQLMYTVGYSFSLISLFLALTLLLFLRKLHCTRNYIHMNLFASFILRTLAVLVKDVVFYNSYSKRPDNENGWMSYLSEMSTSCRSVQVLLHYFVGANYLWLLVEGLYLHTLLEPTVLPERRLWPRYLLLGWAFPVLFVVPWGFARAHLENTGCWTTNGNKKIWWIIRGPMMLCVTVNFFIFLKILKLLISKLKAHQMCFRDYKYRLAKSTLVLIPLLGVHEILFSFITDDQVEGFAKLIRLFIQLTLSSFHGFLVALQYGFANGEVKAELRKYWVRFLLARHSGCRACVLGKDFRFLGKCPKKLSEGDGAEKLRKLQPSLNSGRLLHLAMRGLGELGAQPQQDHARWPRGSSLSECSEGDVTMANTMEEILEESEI
In words: GLP-2 receptor Cell Based Assay (CBA). The conditions noted are these: Table 7.
Experimental: Evaluation of in vitro binding affinity of the different peptides was assessed by using Cell Based Assay (CBA) in the presence of escalating doses of the different peptides.

A short description of series [3]: Stability of GLP-2 analogues on incubation at 37° C. (appearance, O.D. reading, RP-HPLC). The conditions noted are these: following 48 h incubation at 37° C.; for Stability via RP-HPLC main peak: change of main peak. The class given is physicochemical. As for the experimental part: The GLP-2 analogues were tested for stability via appearance, O.D. reading (A.280, and A.325) and RP-HPLC (purity, and peak area) following t=0, 1 day, and 48 h incubation at 37° C.

A short description of series [4]: Pharmacokinetics of modified GLP-2 variants in rats. To be noted: rat, serum, peptide dose 15 mg/kg. The class given is in vivo.
Series [5] in a line: Pharmacokinetics of conjugated teduglutide in rats (commercial GLP2 ELISA kit). To be noted: SD rats. The class given is in vivo. As for the experimental part:
Plasma samples were collected at pre-dose, 0.5, 2, 4, 8, 12, 24, 48, 72, 96, 168, 216, and 240 hours post dose. The levels of conjugates and free teduglutide were measured using commercial GLP2 ELISA kit.
For orientation: ELISA stands for enzyme-linked immunosorbent assay.

The target in series [6] is T2, GLP-2 receptor (UniProt O95838 1-553, limits assumed).
T2 sequence (looked up): T1 sequence (O95838 1-553)
In words: cell-based or functional assay.

Series [7] deals with T2, GLP-2 receptor. In words: cell-based or functional assay. This is another data set of the same source.
Setting [8] is: modified peptides, two injections on days 1 & 3 at 1 mg/kg, intestine weight on day 6.

In the case of `CCCC[C@H](NC(=O)[C@H](CCC(=O)O)NC(=O)[C@H](CC(=O)O)NC(=O)[C@H](CO)NC(=O)[C@H](Cc1ccccc1)NC(=O)[C@H](CO)NC(=O)CNC(=O)[C@H](CCC(=O)O)NC(=O)CNC(=O)[C@@H](N)Cc1c[nH]cn1)C(=O)N[C@@H](CC(N)=O)C(=O)N[C@H](C(=O)N[C@H](C(=O)N[C@@H](CC(C)C)C(=O)N[C@@H](CC(=O)O)C(=O)N[C@@H](Cc1ccc(O)cc1)C(=O)N[C@@H](CC(C)C)C(=O)N[C@@H](C)C(=O)N[C@@H](C)C(=O)N[C@@H](CCCNC(=N)N)C(=O)N[C@@H](CC(=O)O)C(=O)N[C@@H](Cc1ccccc1)C(=O)N[C@H](C(=O)N[C@@H](CC(N)=O)C(=O)N[C@@H](Cc1c[nH]c2ccccc12)C(=O)N[C@@H](CC(C)C)C(=O)N[C@H](C(=O)N[C@@H](CCC(N)=O)C(=O)N[C@H](C(=O)N[C@@H](CCCCN)C(=O)N[C@H](C(=O)N[C@H](C(=O)N[C@@H](CC(=O)O)C(=O)O)[C@@H](C)O)[C@@H](C)CC)[C@@H](C)O)[C@@H](C)CC)[C@@H](C)CC)[C@@H](C)CC)[C@@H](C)O` [Variant 7] (H-HGEGSFSDE[Nle]NTILDYLAARDFINWLIQTKITD-OH), the “Increase of intestine weight over vehicle (%)” value (“Increase … (%)” for short) with small intestine (setting [8]) stood at 12%. The “CMC perspective, combining purity and solubility” value in series [1] is recorded as “outperformed the rest of the peptides”. Besides, at GLP-2 receptor [2], the “EC50 Ratio to Teduglutide” value is reported as 3.0. In series [3], the Solubility via appearance entry is on record as “V7: clear” and the “Stability via RP-HPLC main peak” value is given as “(no change”. For the same molecule, the half-life in series [4] was 5.8 h.
Consider `CCCC[C@H](NC(=O)[C@H](CCC(=O)O)NC(=O)[C@H](CC(=O)O)NC(=O)[C@H](CO)NC(=O)[C@H](Cc1ccccc1)NC(=O)[C@H](CO)NC(=O)CNC(=O)[C@H](CCC(=O)O)NC(=O)CNC(=O)[C@@H](N)Cc1c[nH]cn1)C(=O)N[C@@H](CC(N)=O)C(=O)N[C@H](C(=O)N[C@H](C(=O)N[C@@H](CC(C)C)C(=O)N[C@@H](CC(=O)O)C(=O)N[C@@H](CC(C)C)C(=O)N[C@@H](CC(C)C)C(=O)N[C@@H](C)C(=O)N[C@@H](C)C(=O)N[C@@H](CCCNC(=N)N)C(=O)N[C@@H](CC(=O)O)C(=O)N[C@@H](Cc1ccccc1)C(=O)N[C@H](C(=O)N[C@@H](CC(N)=O)C(=O)N[C@@H](Cc1c[nH]c2ccccc12)C(=O)N[C@@H](CC(C)C)C(=O)N[C@H](C(=O)N[C@@H](CCC(N)=O)C(=O)N[C@H](C(=O)N[C@@H](CCCCN)C(=O)N[C@H](C(=O)N[C@H](C(=O)N[C@@H](CC(=O)O)C(=O)O)[C@@H](C)O)[C@@H](C)CC)[C@@H](C)O)[C@@H](C)CC)[C@@H](C)CC)[C@@H](C)CC)[C@@H](C)O` [Variant 6] (H-HGEGSFSDE[Nle]NTILDLLAARDFINWLIQTKITD-OH), for which the “Increase … (%)” value in the series with small intestine (setting [8]) worked out at 43%. Further, the “CMC perspective, combining purity and solubility” value in series [1] was “outperformed the rest of the peptides”. Besides, at GLP-2 receptor [2], the “EC50 Ratio to Teduglutide” value is 3.8. In series [3], the Solubility via appearance result is listed as “V6: clear” and the “Stability via RP-HPLC main peak” value is listed as “(~1.5%)”. The half-life in series [4] was 12.1 h.
With `CC[C@H](C)[C@H](NC(=O)[C@H](Cc1ccccc1)NC(=O)[C@H](CC(=O)O)NC(=O)[C@H](CCCNC(=N)N)NC(=O)[C@H](C)NC(=O)[C@H](C)NC(=O)[C@H](CC(C)C)NC(=O)[C@H](CC(N)=O)NC(=O)[C@H](CC(=O)O)NC(=O)[C@H](CC(C)C)NC(=O)[C@@H](NC(=O)[C@@H](NC(=O)[C@H](CC(N)=O)NC(=O)[C@H](CCSC)NC(=O)[C@H](CCC(=O)O)NC(=O)[C@H](CC(=O)O)NC(=O)[C@H](CO)NC(=O)[C@H](Cc1ccccc1)NC(=O)[C@H](CO)NC(=O)CNC(=O)[C@H](CC(=O)O)NC(=O)CNC(=O)[C@@H](N)Cc1c[nH]cn1)[C@@H](C)O)[C@@H](C)CC)C(=O)N[C@@H](CC(N)=O)C(=O)N[C@@H](Cc1c[nH]c2ccccc12)C(=O)N[C@@H](CC(C)C)C(=O)N[C@H](C(=O)N[C@@H](CCC(N)=O)C(=O)N[C@H](C(=O)N[C@@H](CCCCN)C(=O)N[C@H](C(=O)N[C@H](C(=O)N[C@@H](CC(=O)O)C(=O)O)[C@@H](C)O)[C@@H](C)CC)[C@@H](C)O)[C@@H](C)CC` [GLP-2-Gly2, reference compound], the “Increase … (%)” value is recorded as 25% in the series on small intestine (2.5 mg/kg daily injections for five days (5 injections), average of five studies); 5% with small intestine (SD rats, SC on days 1 and 3 at 1 mg/kg peptide dose (2 injections), intestine weight on day 6, listed as GLP-2-Gly2 (Teduglutide), 1 mg/kg); “did not increase intestine weight compared to vehicle” in the series with small intestine (SD rats, SC on days 1 and 3 at 1 mg/kg peptide dose (2 injections), intestine weight on day 6, listed as teduglutide, 1 mg/kg). The “Average Intestine weight (gr)” value in the series on small intestine (SD rats, SC on days 1 and 3 at 1 mg/kg peptide dose (2 injections), intestine weight on day 6) turned out to be 5.7 gr. For the same molecule, the “Time up to which detectable in plasma” value in series [5] (single injection) was “up to 4 hours”. Also, the half-life in series [5] (rat, plasma, injected once at 2 mg/kg peptide dose, read-out: Half-Life (t1/2, hr) (converted)) is 0.9 h.

B1: GLP-2 Variant #4 (peptide)
peptide: H-HGEGSFSDE[Nle]NTILDLLAARDFINWLIQTKITD-NH2
SMILES: CCCC[C@H](NC(=O)[C@H](CCC(=O)O)NC(=O)[C@H](CC(=O)O)NC(=O)[C@H](CO)NC(=O)[C@H](Cc1ccccc1)NC(=O)[C@H](CO)NC(=O)CNC(=O)[C@H](CCC(=O)O)NC(=O)CNC(=O)[C@@H](N)Cc1c[nH]cn1)C(=O)N[C@@H](CC(N)=O)C(=O)N[C@H](C(=O)N[C@H](C(=O)N[C@@H](CC(C)C)C(=O)N[C@@H](CC(=O)O)C(=O)N[C@@H](CC(C)C)C(=O)N[C@@H](CC(C)C)C(=O)N[C@@H](C)C(=O)N[C@@H](C)C(=O)N[C@@H](CCCNC(=N)N)C(=O)N[C@@H](CC(=O)O)C(=O)N[C@@H](Cc1ccccc1)C(=O)N[C@H](C(=O)N[C@@H](CC(N)=O)C(=O)N[C@@H](Cc1c[nH]c2ccccc12)C(=O)N[C@@H](CC(C)C)C(=O)N[C@H](C(=O)N[C@@H](CCC(N)=O)C(=O)N[C@H](C(=O)N[C@@H](CCCCN)C(=O)N[C@H](C(=O)N[C@H](C(=O)N[C@@H](CC(=O)O)C(N)=O)[C@@H](C)O)[C@@H](C)CC)[C@@H](C)O)[C@@H](C)CC)[C@@H](C)CC)[C@@H](C)CC)[C@@H](C)O
On to B1, for which, in the series with GLP-2 receptor [6], the “EC50 Ratio to Teduglutide, CBA” value is 3.8 fold and the “EC50 [nM], Cell Based Assay (CBA), cells overexpressing the GLP-2 receptor” value came out at 21.6 nM. Besides, in the series with GLP-2 receptor [7], the “EC50 (nM) Average, GLP2-receptor CBA, 3 independent assays” value is 1 nM and the “EC50 Ratio to Teduglutide, GLP2-receptor CBA” value is 1.8 fold.
